Measured values taken from patent publication US10111874B2, “Combination therapies for treatment of cancer” (Araxes Pharma LLC, priority 2014, dated 2018).

These compounds were tested against T1, KRAS G12C 1-169, his-tagged protein, GDP-loaded (Homo sapiens, UniProt P01116, G12C) (assay: Biochemical assay: covalent binding to KRAS G12C analyzed by mass spectrometry). Conditions: compounds 1-47, measured at 24 h.
T1 construct: KRAS G12C 1-169, his-tagged protein, GDP-loaded
Also: test concentration or dose not given here.

T1 sequence (P01116 1-169 isoform P01116-2 G12C): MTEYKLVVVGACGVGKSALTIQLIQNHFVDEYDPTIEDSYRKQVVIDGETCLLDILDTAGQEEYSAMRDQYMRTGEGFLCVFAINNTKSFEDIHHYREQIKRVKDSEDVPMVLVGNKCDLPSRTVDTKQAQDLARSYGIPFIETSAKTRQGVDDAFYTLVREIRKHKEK

Row | Compound | Binding %
1 | C=CC(=O)N1CCC2(C1)CN(C(=O)CNc1cc(Cl)c(Cl)cc1O)C2 [Example 40, 1-(2-(2-(4,5-dichloro-2-hydroxyphenylamino)acetyl)-2,6-diazaspiro[3.4]octan-6-yl)prop-2-en-1-one] | +++ (+++indicates binding activity greater than 50% and up to 75%)

Same assay, conditions: compounds 48-246, measured at 2 h

Row | Compound | Binding %
2 | C=CC(=O)N1CC(N2CCN(C(=O)OC(C)(C)C)CC2)C1 [Example 50, tert-butyl 4-(1-acryloylazetidin-3-yl)piperazine-1-carboxylate] | + (+indicates binding activity from 5% to 25%)

Same assay, conditions: determined at 24 hrs

Row | Compound | Binding %
3 | C=CC(=O)N1CC(N2CCN(C(=O)CNc3cc(Cl)c(Cl)cc3O)CC2)C1 [II-1, 1-(3-(4-(2-(4,5-dichloro-2-hydroxyphenyl-amino)acetyl)-piperazin-1-yl)azetidin-1-yl)prop-2-en-1-one] | ++++ (++++indicates binding activity greater than 50%)
4 | C=CC(=O)N1CCC(N2CCN(C(=O)CNc3cc(Cl)c(Cl)cc3O)CC2)C1 (stereo not drawn) [II-2, 1-(3-(4-(2-(4,5-dichloro-2-hydroxyphenyl-amino)acetyl)piperazin-1-yl)pyrrolidin-1-yl)prop-2-en-1-one] | +++ (+++indicates binding activity greater than 25% and up to 50%)
5 | C=CC(=O)NC1CN(C2CN(C(=O)CNc3cc(Cl)c(Cl)cc3O)C2)C1 [II-3, N-(1′-(2-(4,5-dichloro-2-hydroxyphenyl-amino)acetyl)-1,3′-biazetidin-3-yl)acrylamide] | ++++ (++++indicates binding activity greater than 50%)
6 | C=CC(=O)N1CC(N2CCN(C(=O)CNc3cc(OC)c(Cl)cc3Cl)CC2)C1 [II-5, 1-(3-(4-(2-(2,4-dichloro-5-methoxyphenyl-amino)acetyl)-piperazin-1-yl)azetidin-1-yl)prop-2-en-1-one] | + (+indicates binding activity from 5% to 15%)
7 | C=CC(=O)N1CC(N2CCN(C(=O)CCc3cc(Cl)c(Cl)cc3O)CC2)C1 [II-6, 1-(3-(4-(3-(4,5-dichloro-2-hydroxyphenyl)-propanoyl)piperazin-1-yl)azetidin-1-yl)prop-2-en-1-one] | + (+indicates binding activity from 5% to 15%)
8 | C=CC(=O)N1CCC(N2CCN(C(=O)CNc3cc(C)c(Cl)cc3O)CC2)C1 (stereo not drawn) [II-7, 1-(3-(4-(2-(4-chloro-2-hydroxy-5-methylphenylamino)-acetyl)piperazin-1-yl)pyrrolidin-1-yl)prop-2-en-1-one] | ++ (++indicates binding activity greater than 15% and up to 25%)
9 | C=CC(=O)N1CC(N2CCN(C(=O)CNc3cc(C#N)c(Cl)cc3Cl)CC2)C1 [II-9, 5-(2-(4-(1-acryloylazetidin-3-yl)piperazin-1-yl)-2-oxoethylamino)-2,4-dichlorobenzonitrile] | + (+indicates binding activity from 5% to 15%)
10 | C=CC(=O)N1CC(N2CCN(C(=O)CNc3cc(Cl)c(Cl)cc3C(N)=O)CC2)C1 [II-10, 2-(2-(4-(1-acryloylazetidin-3-yl)piperazin-1-yl)-2-oxoethylamino)-4,5-dichlorobenzamide] | + (+indicates binding activity from 5% to 15%)
11 | C=CC(=O)N1CCC(N2CCN(C(=O)CNc3cc(I)c(Cl)cc3O)CC2)C1 (stereo not drawn) [II-11] | ++++ (++++indicates binding activity greater than 50%)
12 | C=CC(=O)N1CCC(N2CCN(C(=O)CNc3cc(CC)c(Cl)cc3O)CC2)C1 (stereo not drawn) [II-12, 1-(3-(4-(2-(4-chloro-5-ethyl-2-hydroxyphenylamino)-acetyl)piperazin-1-yl)pyrrolidin-1-yl)prop-2-en-1-one] | +++ (+++indicates binding activity greater than 25% and up to 50%)
13 | C=CC(=O)N1CC(N2CCN(C(=O)c3cc(-c4cc(Cl)ccc4Cl)c(Cl)cc3OC)CC2)C1 [II-13, 1-(3-(4-(2′,5′,6-trichloro-4-methoxybiphenyl-carbonyl)piperazin-1-yl)azetidin-1-yl)prop-2-en-1-one] | ++ (++indicates binding activity greater than 15% and up to 25%)
14 | C=CC(=O)N1CC(N2CCN(C(=O)CNc3cc(Cl)c(F)cc3O)CC2)C1 [II-14, 1-(3-(4-(2-(5-chloro-4-fluoro-2-hydroxyphenyl-amino)acetyl)piperazin-1-yl)azetidin-1-yl)prop-2-en-1-one] | +++ (+++indicates binding activity greater than 25% and up to 50%)
15 | C=CC(=O)N1CC(N2CCC(C(=O)NCc3cc(Cl)c(Cl)cc3O)CC2)C1 [II-17, 1-(1-acryloylazetidin-3-yl)-N-(4,5-dichloro-2-hydroxybenzyl)piperidine-4-carboxamide] | ++ (++indicates binding activity greater than 15% and up to 25%)
16 | C=CC(=O)N1CC(N2CCN(C(=O)CNc3cc(Br)c(Cl)cc3O)CC2)C1 [II-18, 1-(3-(4-(2-(5-bromo-4-chloro-2-hydroxyphenyl-amino)acetyl)piperazin-1-yl)azetidin-1-yl)prop-2-en-1-one] | ++++ (++++indicates binding activity greater than 50%)
17 | C=CC(=O)N1CC(N2CCN(C(=O)CNc3cc(Cl)ccc3O)CC2)C1 [II-19, 1-(3-(4-(2-(5-chloro-2-hydroxyphenyl-amino)acetyl)-piperazin-1-yl)azetidin-1-yl)prop-2-en-1-one] | +++ (+++indicates binding activity greater than 25% and up to 50%)
18 | CN(C)C/C=C/C(=O)N1CC(N2CCN(C(=O)CNc3cc(Cl)c(Cl)cc3O)CC2)C1 [II-20, (E)-1-(3-(4-((4,5-dichloro-2-hydroxyphenyl)-glycyl)piperazin-1-yl)azetidin-1-yl)-4-(dimethylamino)but-2-en-1-one] | ++ (++indicates binding activity greater than 15% and up to 25%)

Row | Compound | Binding %
19 | C=CC(=O)N1CC(N2CCN(C(=O)CCn3c(=O)[nH]c4cc(Cl)c(Cl)cc43)CC2)C1 [II-21, 1-(3-(4-(1-acryloylazetidin-3-yl)piperazin-1-yl)-3-oxopropyl)-5,6-dichloro-1H-benzo[d]imidazol-2(3H)-one] | + (+indicates binding activity from 5% to 15%)
20 | C=CC(=O)N1CC(N2CCN(C(=O)CNc3cc(Cl)c(Cl)cc3Cl)CC2)C1 [II-22, 1-(3-(4-(2-(2,4,5-trichlorophenyl-amino)acetyl)-piperazin-1-yl)azetidin-1-yl)prop-2-en-1-one] | + (+indicates binding activity from 5% to 15%)
21 | C=CC(=O)N1CC(N2CCN(C(=O)CNc3cc(O)c(Cl)cc3Cl)CC2)C1 [II-23, 1-(3-(4-(2-(2,4-dichloro-5-hydroxyphenyl-amino)acetyl)piperazin-1-yl)azetidin-1-yl)prop-2-en-1-one] | + (+indicates binding activity from 5% to 15%)
22 | C=CC(=O)N1CC(N2CCN(C(=O)Cc3cccc4ccccc34)CC2)C1 [II-24, 1-(3-(4-(2-(naphthalen-1-yl)acetyl)piperazin-1-yl)azetidin-1-yl)prop-2-en-1-one] | + (+indicates binding activity from 5% to 15%)
23 | C=CC(=O)N1CC(N2CCN(C(=O)Cc3c[nH]c4ccccc34)CC2)C1 [II-25, 1-(3-(4-(2-(1H-indol-3-yl)acetyl)piperazin-1-yl)azetidin-1-yl)prop-2-en-1-one] | + (+indicates binding activity from 5% to 15%)
24 | C=CC(=O)N1CC(N2CCN(C(=O)CNc3cc(Cl)c(Cl)cc3C(F)(F)F)CC2)C1 [II-26, 1-(3-(4-(2-(4,5-dichloro-2-(trifluoromethyl)-phenylamino)acetyl)-piperazin-1-yl)azetidin-1-yl)prop-2-en-1-one] | + (+indicates binding activity from 5% to 15%)
25 | C=CC(=O)N1CC(N2CCN(C(=O)CNc3cc(O)c(Cl)c(Cl)c3)CC2)C1 [II-27, 1-(3-(4-(2-(3,4-dichloro-5-hydroxyphenyl-amino)acetyl)piperazin-1-yl)azetidin-1-yl)prop-2-en-1-one] | ++ (++indicates binding activity greater than 15% and up to 25%)
26 | C=CC(=O)N1CC(N2CCN(C(=O)CNc3cc(Cl)c(Br)cc3O)CC2)C1 [II-28, 1-(3-(4-(2-(4-bromo-5-chloro-2-hydroxyphenylamino)-cetyl)piperazin-1-yl)azetidin-1-yl)prop-2-en-1-one] | +++ (+++indicates binding activity greater than 25% and up to 50%)
27 | C=CC(=O)N1CC(N2CCN(C(=O)Cn3ccc4ccccc43)CC2)C1 [II-29, 1-(3-(4-(2-(1H-indol-1-yl)acetyl)piperazin-1-yl)azetidin-1-yl)prop-2-en-1-one] | + (+indicates binding activity from 5% to 15%)
28 | C=CC(=O)N1CC(N2CCN(C(=O)Cn3ccc4cc(Cl)c(Cl)cc43)CC2)C1 [II-30, 1-(3-(4-(2-(5,6-dichloro-1H-indol-1-yl)acetyl)piperazin-1-yl)azetidin-1-yl)prop-2-en-1-one] | + (+indicates binding activity from 5% to 15%)
29 | C=CC(=O)N1CC(N2CCN(C(=O)C(C)Nc3cc(Cl)c(Cl)cc3O)CC2)C1 (stereo not drawn) [II-31, 1-(3-(4-(2-(4,5-dichloro-2-hydroxyphenylamino)-propanoyl)-piperazin-1-yl)azetidin-1-yl)prop-2-en-1-one] | ++++ (++++indicates binding activity greater than 50%)
30 | C=CC(=O)N1CC(N2CCN(C(=O)CNc3cc(C)c(Cl)cc3O)CC2)C1 [II-32, 1-(3-(4-(2-(4-chloro-2-hydroxy-5-methylphenylamino)-acetyl)piperazin-1-yl)azetidin-1-yl)prop-2-en-1-one] | ++++ (++++indicates binding activity greater than 50%)
31 | C=CC(=O)N1CC(N2CCN(C(=O)CNc3cc(O)cc(Cl)c3)CC2)C1 [II-33, 1-(3-(4-(2-(3-chloro-5-hydroxyphenylamino)-acetyl)piperazin-1-yl)azetidin-1-yl)prop-2-en-1-one] | + (+indicates binding activity from 5% to 15%)
32 | C=CC(=O)N1CC(N2CCN(C(=O)CNc3cc(S(C)(=O)=O)ccc3O)CC2)C1 [II-34, 1-(3-(4-(2-(2-hydroxy-5-(methylsulfonyl)-phenylamino)acetyl)-piperazin-1-yl)azetidin-1-yl)prop-2-en-1-one] | + (+indicates binding activity from 5% to 15%)
33 | C=CC(=O)N1CC(N2CCN(C(=O)CNc3cc(C4CC4)c(Cl)cc3O)CC2)C1 [II-35, 1-(3-(4-(2-(4-chloro-5-cyclopropyl-2-hydroxyphenyl-amino)acetyl)piperazin-1-yl)azetidin-1-yl)prop-2-en-1-one] | ++++ (++++indicates binding activity greater than 50%)
